According to US11878978B1, “Pyrrolo[2,3-c]quinoline compounds as CK2 inhibitors” (KING FAISAL UNIVERSITY, priority 2023, dated 2024):
pIC50: −log10 of the molar value.

How the values were obtained:
MIAPaCa-2 (pancreas) = assay: In vitro cytotoxic activity assay (MTT), MIAPaCa-2; assay type: cell-based; settings: Homo sapiens, MIA PaCa-2; MIAPaCa-2 (pancreas) cells, exposed for 96 hours; read-out: IC50, concentration of compound eliciting a 50% inhibition of cell proliferation
Method: (§1) Compounds 1-12 were screened for their in vitro cytotoxic activity utilizing a 3-(4,5-dimethyl-thiazol-2-yl)-2,5-diphenyltetrazolium bromide (MTT) assay against selected cancer human cell lines consisting of PC3 (prostate), HCT116 (colon), A375 (melanoma), H1299 (lung), MIAPaCa-2 (pancreas), HL60 (leukemia), MCF7 (breast), MDA-MB-231 (breast) (T. Mosmann, J. Immunol. Meth., 1983, 65, 55-63). The cells were cultured at 37° C. in RMPI1640 medium supplemented with 10% fetal bovine serum, 50 IU/mL penicillin, and 50 μg/mL streptomycin in a 5% CO2 incubator. All cells were sub-cultured 3 times/week by trypsinisation. Viable cells were seeded and allowed to adhere for 12 h before a test drug was added in 96-well plates at an initial density of 1.0×10^5 cells/mL. Tumour cell lines were separately exposed to various concentrations of the tested compounds followed by incubation at a temperature of 37° C. during 96 h inside a medium of fresh RMPI 1640. Cells were subsequently incubated at 37° C. using MTT at 0.5 mg/mL during 4 h. After removal of supernatant, formazan crystals were dissolved in isopropanol and the optical density was measured at 570 nm. CX-4945 was used as a positive control.

MCF7 (breast) = assay: In vitro cytotoxic activity assay (MTT), MCF7; assay type: cell-based; settings: Homo sapiens; MCF7 (breast) cells, exposed for 96 hours; read-out: IC50, concentration of compound eliciting a 50% inhibition of cell proliferation
Method: as §1

H1299 (lung) = assay: In vitro cytotoxic activity assay (MTT), H1299; assay type: cell-based; settings: Homo sapiens, NCI-H1299; H1299 (lung) cells, exposed for 96 hours; read-out: IC50, concentration of compound eliciting a 50% inhibition of cell proliferation
Method: as §1

HCT116 (colon) = assay: In vitro cytotoxic activity assay (MTT), HCT116; assay type: cell-based; settings: Homo sapiens, HCT-116; HCT116 (colon) cells, exposed for 96 hours; read-out: IC50, concentration of compound eliciting a 50% inhibition of cell proliferation
Method: as §1

A375 (melanoma) = assay: In vitro cytotoxic activity assay (MTT), A375; assay type: cell-based; settings: Homo sapiens, A-375; A375 (melanoma) cells, exposed for 96 hours; read-out: IC50, concentration of compound eliciting a 50% inhibition of cell proliferation
Method: as §1

HL60 (leukemia) = assay: In vitro cytotoxic activity assay (MTT), HL60; assay type: cell-based; settings: Homo sapiens, HL-60; HL60 (leukemia) cells, exposed for 96 hours; read-out: IC50, concentration of compound eliciting a 50% inhibition of cell proliferation
Method: as §1

MDA-MB-231 (breast) = assay: In vitro cytotoxic activity assay (MTT), MDA-MB-231; assay type: cell-based; settings: Homo sapiens; MDA-MB-231 (breast) cells, exposed for 96 hours; read-out: IC50, concentration of compound eliciting a 50% inhibition of cell proliferation
Method: as §1

PC3 (prostate) = assay: In vitro cytotoxic activity assay (MTT), PC3; assay type: cell-based; settings: Homo sapiens, Prostate cell; PC3 (prostate) cells, exposed for 96 hours; read-out: IC50, concentration of compound eliciting a 50% inhibition of cell proliferation
Method: as §1

recombinant human CK2 = molecular target: T1, recombinant human CK2 (Homo sapiens, UniProt P68400); assay: CK2 Kinase Assay (33P-ATP, substrate peptide RRRDDDSDDD); assay type: biochemical; settings: final ATP concentration 15 μM, 10 min at 30° C., eight concentrations; read-out: protein kinase CK2 IC50
T1 construct: purchased Millipore
Method: CK2 Kinase Assay was conducted using the protocol as described in Pierre F. et al; J. Med. Chem. 2011, 54, 635-654. The tested compounds in aqueous solution were added at a volume of 10 μL to a reaction mixture comprising 10 μL of assay dilution buffer (ADB; 20 mM MOPS, pH 7.2, 25 mM β-glycerol phosphate, 5 mM EGTA, 1 mM sodium orthovanadate, and 1 mM dithiothreitol), 10 μL of substrate peptide (RRRDDDSDDD, dissolved in ADB at a concentration of 1 mM), 10 μL of recombinant human CK2 (RROP-holoenzyme, 25 ng dissolved in ADB; Millipore). Reactions were initiated by the addition of 10 μL of ATP solution (90% 75 mMMgCl2, 75 μM ATP (final ATP concentration:15 μM) dissolved in ADB; 10% [γ-33P] ATP (stock 1 mCi/100 μL; 3000 Ci/mmol (Perkin-Elmer) and maintained for 10 min at 30° C. The reactions were quenched with 100 μL of 0.75% phosphoric acid and then transferred to and filtered through a phosphor cellulose filter plate (Millipore). After washing each well five times with 0.75% phosphoric acid, the plate was dried under vacuum for 5 min and, following the addition of 15 μL of scintillation fluid to each well, the residual radioactivity was measured using a Wallac luminescence counter. The IC50 values were derived from eight concentrations of test inhibitors.

T1 sequence (P68400 whole entry): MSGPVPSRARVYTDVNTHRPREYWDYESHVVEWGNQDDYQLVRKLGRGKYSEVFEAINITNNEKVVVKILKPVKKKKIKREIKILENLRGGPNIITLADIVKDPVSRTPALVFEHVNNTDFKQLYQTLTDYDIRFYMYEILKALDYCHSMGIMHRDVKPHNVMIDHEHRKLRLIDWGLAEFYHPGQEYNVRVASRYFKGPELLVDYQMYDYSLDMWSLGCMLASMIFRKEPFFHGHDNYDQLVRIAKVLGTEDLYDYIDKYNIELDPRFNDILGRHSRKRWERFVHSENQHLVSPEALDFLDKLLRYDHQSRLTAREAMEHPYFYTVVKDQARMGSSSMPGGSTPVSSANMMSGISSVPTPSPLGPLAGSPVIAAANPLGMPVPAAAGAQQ
T1 sequence (P67870 whole entry partner): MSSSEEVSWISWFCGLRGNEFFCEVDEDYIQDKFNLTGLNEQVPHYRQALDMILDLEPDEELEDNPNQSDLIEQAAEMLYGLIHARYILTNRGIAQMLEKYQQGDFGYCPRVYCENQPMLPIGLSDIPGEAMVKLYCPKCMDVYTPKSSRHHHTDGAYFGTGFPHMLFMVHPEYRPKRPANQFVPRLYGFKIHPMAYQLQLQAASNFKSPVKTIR

pIC50 (recombinant human CK2): 7.46
SMILES: O=C(O)c1ccc2c(c1)nc(Nc1cccc(Cl)c1)c1[nH]cc(C(=O)O)c12 [Compound 1, 4-((3-chlorophenyl)amino)-3H-pyrrolo[2,3-c]quinoline-1,7-dicarboxylic acid]
pIC50 (MIAPaCa-2 (pancreas)): 5.85
pIC50 (MCF7 (breast)): 5.21
pIC50 (H1299 (lung)): 5.72
pIC50 (HCT116 (colon)): 5.77
pIC50 (A375 (melanoma)): 5.66
pIC50 (HL60 (leukemia)): 5.51
pIC50 (MDA-MB-231 (breast)): 5.34
pIC50 (PC3 (prostate)): 5.89
